Earlier results as cited in patent publication US12409106B2, “Medical material” (Senju USA, Inc., priority 2022, dated 2025).

Settings: Soong T. Chiang et al., Pharmacotherapy 1996

Nc1c(CC(=O)O)cccc1C(=O)c1ccc(Br)cc1 [bromfenac]
topical 50% effective concentration EC50 on pain after oral surgery: 0.36 µg/mL
